From patent US20250282819A1, “MITOCHONDRIA-[…] PEPTIDE THAT CAN BE […] DELIVERED AT NANOMOLAR CONCENTRATION, AND USE THEREOF” (CAMP THERAPEUTICS INC., priority 2021, published 2025)
Each block holds one molecule with its values, some of them ahead of it. Where a SMILES comes first, the peptide text is derived from it. [ ]: non-standard residue; d: D form. Cha = N[C@@H](CC1CCCCC1)C(=O)O

Assays:
[1] = test system: HeLa cells; experiment: Relative cytotoxicity, number of cells normally attached; conditions: 100 nM, 3 hours
Procedure: The relative cytotoxicity of the dimeric bundle peptides according to the present disclosure was compared and analyzed. For this purpose, 1×10^5 HeLa cells were treated with 100 nM of each peptide for 3 hours, washed three times with PBS, and then resuspended in PBS. After 30 minutes, five random photographs of each sample were taken under a light microscope to measure the number of cells normally attached to the cell culture dish.

[2] = test system: HeLa cells; experiment: Co-localization with Drp1-eGFP; assay type: cell-based; conditions: HeLa cells transfected with Drp1-eGFP
Procedure: Wild-type Drp1 cDNA (kindly provided by Dr. Sunyong Chung, Ajou University School of Medicine) was amplified by polymerase chain reaction and inserted into the N-terminus of the eGFP gene in the pcDNA3.1-plasmid. Transfection of the plasmid was performed using Lipofectamine™ 3000 (Thermo Fisher Scientific, L3000001) according to the manufacturer's instructions.

[3] = test system: HeLa cells; conditions: 10 or 30 nM 3 hours, then H2O2 for 1 hour
Procedure: The membrane potential of mitochondria was measured according to the method described in Experimental Example 7.
(§1) 2×10^4 HeLa cells were seeded in a 96-well plate 24 hours before the experiment. The cells were then stained with MitoSOX™ (Thermo Fisher Scientific, M36008; 5 μM, 10 min) or tetramethylrhodamine ethyl ester (TMRE; Sigma, 87917; 600 nM, 15 min). The cells were washed with PBS, and HBSS was added thereto. Fluorescence signal of the cells was measured with a microplate reader (TECAN) at 37° C. (MitoSox, Ex/Em=510/580 nm; TMRE, Ex/Em=525/575 nm).

[4] = test system: HeLa cells; conditions: HeLa cells pretreated 3 hours; H2O2, antimycin A, or CCCP
Procedure: as §1

[5] = test system: HeLa cells; experiment: Co-localization with endosome, lysosome and cardiolipin (NAO) markers; assay type: cell-based; conditions: HeLa cells expressing CellLight early endosomes-GFP, 100 nM 3 hours
Procedure: Next, to investigate whether mitochondrial damage affects the amount of peptide present in lysosomes, cardiolipin-specific targeting was investigated using NAO in the presence or absence of CCCP.
For microscopic observation, HeLa cells were cultured in glass-bottom dishes (SPL, 200350, Korea). The cells were then treated with peptides for 3 hours and stained with MitoTracker™ (Thermo Fisher Scientific, A1372, USA; 100 nM, 1 hr), nonyl acridine orange (NAO; Thermo Fisher Scientific, A1372; 100 nM, 1 hr), Hoechst 33342 ([…], 20 min), CellLight™ early endosomes-GFP (Thermo Fisher Scientific, C10586; […], 16 hr), and/or LysoTracker™ (Thermo Fisher Scientific, L7525; 50 nM, 30 min). The cells were then rinsed with PBS and HBSS was added thereto. Images of the stained cells were obtained using a microscope (Zeiss LSM 880 and ELYRA PS.1). To generate ultra-high resolution images, a structured illumination process was performed with ZEN Black software. Pearson r values were calculated by using ImageJ software.

[6] = test system: HeLa cells; conditions: EC50 concentration 3 hours, 0.5 mM H2O2
Procedure: Subsequently, after treatment with 0.5 mM of H2O2, the fluorescence was detected and imaged by confocal microscopy. The fluorescence intensity of the cells was calculated with an image analysis program (ZEN blue).
Then, the cells were stained with 2′,7′-dichlorofluorescin diacetate (H2DCFDA; Sigma, 287810, USA; 25 μM, 30 min) and washed twice with PBS. The cells were treated with 500 μM H2O2 in HBSS and incubated for an additional 10 minutes. DCF signal of the cells was detected by confocal microscope and an image thereof was taken. Green signal intensity of each image was calculated using ZEN blue software.

[7] = test system: HeLa cells; experiment: Preferential binding to CCCP-damaged mitochondria, confocal microscopy; assay type: cell-based; conditions: 100 nM 3 hours, 20 μM CCCP
[8] = test system: HeLa cells; conditions: observed for 4 hours
[9] = test system: HeLa cells; experiment: ATP levels in damaged cells pretreated with peptide; assay type: cell-based; conditions: HeLa cells pretreated 3 hours; H2O2, antimycin A, or CCCP
Procedure: The relative ATP levels of cells were compared by fluorescence intensity according to the method described in Experimental Example 8, and mitochondrial damage was induced by treatment with two different mitochondrial damaging agents (1 μM of antimycin A or 1 mM of H2O2).
Cellular ATP levels were assessed using an ATP detection kit (Abcam, ab113849, USA) according to the manufacturer's instructions. Fluorescence luminescence was measured with a microplate reader (Promega, Glomax 96 microplate luminometer, USA).

[10] = test system: HeLa cells; assay type: cell-based; conditions: for level of EC50 value (cell-penetrating ability): comparison of CMP3013, LR10, MPP1a, SS-31
Procedure: Cell-penetrating ability was evaluated using the fluorescently-labeled versions of the dimeric bundle peptides synthesized in Example 3, and measured as EC50 values according to the method described in Experimental Example 3.
1×10^5 HeLa cells were seeded into a 24-well plate. After 24 hours, the peptide was added to the cells and further incubation was performed for 3 hours. The incubated cells were harvested, washed with PBS, suspended in PBS, and then analyzed by fluorescence-activated cell sorting (FACS; BD Accuri, USA). The cells whose fluorescence intensity exceeds the maximum intensity of untreated cells were classified as fluorescence-positive cells.

[11] = Cardiolipin binding assay, NBD fluorescence with liposomes
Procedure: To further validate specificity of CMP3013 for cardiolipin-rich membranes identified in Example 9, two model systems mimicking the inner mitochondrial membrane were constructed using POPC (1-palmitoyl-2-oleoyl-sn-glycero-3-phosphocholine) and POPE (1-palmitoyl-2-oleoyl-sn-glycero-3-phosphoethanolamine), and cardiolipin binding assays were performed using an NBD-labeled CMP3013 monomer (NBD-CMP3013m), according to the method described in Experimental Example 12.
For the association experiments, 1 μM of NBD-labeled peptide dissolved in PBS was prepared in a black 96-well plate. Liposome (POPC:POPE=2:1 or POPC:POPE=2:1, containing 10% cardiolipin) was added to the peptide until the desired concentration was achieved. The mixture of NBD-peptide and liposome was mixed well through pipetting, and then fluorescence emission of the sample was monitored (λex=467 nm, λem=536 nm).
For the association experiments depending on cardiolipin ratio, 1 μM of NBD-labeled peptide or C6-NBD dissolved in PBS was prepared in a black 96-well plate. Liposome (POPC:POPE=2:1, containing 0 to 20% cardiolipin) was added to the peptide until the desired concentration (5 μM) was achieved. This mixture was mixed well through pipetting and fluorescence emission of the sample was monitored (λex=467 nm, λem=536 nm).
For dissociation experiments, 1 μM of NBD-labeled peptide dissolved in PBS was prepared in a black 96-well plate. Liposome (POPC:POPE=2:1 or POPC:POPE=2:1, containing 10% cardiolipin) was added to the peptide until the desired concentration (100 μM) was achieved. The mixture of NBD-peptide and liposome was mixed well through pipetting and fluorescence intensity of the mixture was measured (λex=467 nm, λem=536 nm). The unlabeled peptide (acetylated peptide) was then added to the mixture and mixed well through pipetting. Incubation in the dark was performed for 10 minutes, and then changes in fluorescence intensity were monitored. Peptide addition and fluorescence measurement were repeated until the concentration of acetylated peptide reached 40 μM.

[12] = SPR binding to inner membrane model on sensor chip
Procedure: The surface plasmon resonance (SPR) technique was used to determine binding ability of the peptide to liposome. Specifically, an L1 sensor chip was inserted into a Biacore™ T200 SPR system (Cytiva, USA) and then liposome was injected so that the liposome binds to the sensor chip. Subsequently, 1 μM of NBD-CMP3013m peptide was injected to check the signal intensity increased by the binding of liposome and CMP3013.
Two types of model systems mimicking the inner mitochondrial membrane were constructed using POPC and POPE according to the method described in Experimental Example 12, and NBD-labeled CMP3013 monomer (NBD-CMP3013m) and NBD-labeled SS-31 (NBD-SS-31) were used to compare and analyze their cardiolipin binding ability.

Molecule: CC(=O)N[C@@H](CC1CCCCC1)C(=O)N[C@H]1CSSC[C@@H](C(=O)N[C@@H](CCCNC(=N)N)C(N)=O)NC(=O)[C@H](CC(C)C)NC(=O)[C@H](CCCNC(=N)N)NC(=O)[C@H](CCCNC(=N)N)NC(=O)[C@H](CC2CCCCC2)NC(=O)[C@H](CC2CCCCC2)NC(=O)[C@H](CCCNC(=N)N)NC(=O)[C@@H](NC(=O)[C@H](CC2CCCCC2)NC(C)=O)CSSC[C@@H](C(=O)N[C@@H](CCCNC(=N)N)C(N)=O)NC(=O)[C@H](CC(C)C)NC(=O)[C@H](CCCNC(=N)N)NC(=O)[C@H](CCCNC(=N)N)NC(=O)[C@H](CC2CCCCC2)NC(=O)[C@H](CC2CCCCC2)NC(=O)[C@H](CCCNC(=N)N)NC1=O [CMP3011] (HELM PEPTIDE1{[ac].[Cha].C.R.[Cha].[Cha].R.R.L.C.R.[am]}|PEPTIDE2{[ac].[Cha].C.R.[Cha].[Cha].R.R.L.C.R.[am]}$PEPTIDE1,PEPTIDE2,3:R3-10:R3|PEPTIDE1,PEPTIDE2,10:R3-3:R3$$$V2.0)
relative cytotoxicity [1]: relatively highest cytotoxicity

Molecule: CC(=O)N[C@@H](CC1CCCCC1)C(=O)N[C@H]1CSSC[C@@H](C(=O)N[C@@H](CCCNC(=N)N)C(N)=O)NC(=O)[C@H](CC2CCCCC2)NC(=O)[C@H](CCCNC(=N)N)NC(=O)[C@H](CCCNC(=N)N)NC(=O)[C@H](CC2CCCCC2)NC(=O)[C@H](CC(C)C)NC(=O)[C@H](CCCNC(=N)N)NC(=O)[C@@H](NC(=O)[C@H](CC2CCCCC2)NC(=O)c2ccc3c(c2)C(=O)OC32c3ccc(N(C)C)cc3Oc3cc(N(C)C)ccc32)CSSC[C@@H](C(=O)N[C@@H](CCCNC(=N)N)C(N)=O)NC(=O)[C@H](CC2CCCCC2)NC(=O)[C@H](CCCNC(=N)N)NC(=O)[C@H](CCCNC(=N)N)NC(=O)[C@H](CC2CCCCC2)NC(=O)[C@H](CC(C)C)NC(=O)[C@H](CCCNC(=N)N)NC1=O [FL-CMP3013] (HELM PEPTIDE1{[ac].[Cha].C.R.L.[Cha].R.R.[Cha].C.R.[am]}|PEPTIDE2{[CN(C)c1ccc2c(c1)Oc1cc(N(C)C)ccc1C21OC(=O)c2cc(C(=O)[*:2])ccc21].[Cha].C.R.L.[Cha].R.R.[Cha].C.R.[am]}$PEPTIDE1,PEPTIDE2,3:R3-10:R3|PEPTIDE1,PEPTIDE2,10:R3-3:R3$$$V2.0)
co-localization with Drp1 [2]: co-localize perfectly with Drp1
mitochondrial membrane potential [3]: increased by FL-CMP3013 treatment in a concentration-dependent manner
ROS production [4]: inhibited ROS production
co-localization with endosomal marker [5]: less than 20%
ROS production inhibiting ability [6]: greatest inhibition of ROS production
targeting of damaged mitochondria [7]: co-localized more with donut-shaped or bulge-shaped mitochondria
cell survival after CCCP [8]: survived even after 4 hours
ATP production [9]: resumed ATP production

Molecule: XCRLXRRXCR (Ac-[Cha]CRL[Cha]RR[Cha]CR-NH2; cysteine pairing not given here) [CMP3013m, acetyl-capped monomeric peptide, X = Cha]
dissociation from the cardiolipin-containing membrane [12]: did not dissociate from the cardiolipin-containing membrane
greater response unit (RU) for membrane containing 10% cardiolipin versus POPC/POPE membrane alone ([12]; 1 μM peptide): approximately 50%
binding to pathogenically altered membrane (5 to 10% cardiolipin, 10% DLCL) ([11]; POPC:POPE (2:1) liposomes): can bind to a cardiolipin-damaged membrane
slower dissociation from CL-containing membrane than from cardiolipin-free membrane ([11]; competition assay with unlabeled peptide): approximately 10 fold
binding capacity for liposome membranes, CMP3013m versus SS-31 ([11]; liposomes with cardiolipin or di-lysocardiolipin): better binding capacity for all types of membranes

The next lines start with results.

level of EC50 value (cell-penetrating ability) [10]: nanomolar level of EC50 value
Molecule: AcNH-RCRLLRRLRLCR-C(O)NH2 [LR10, peptide included in the L1L, L4L, L5L, and L8L sub-libraries, additional comparison group]
improvement in cell penetration rate as compared with SS-31 [10]: approximately 100 fold

faster binding to 10% CL liposome versus POPC/POPE liposome alone ([11]; 1 μM NBD-labeled peptide): approximately 10 fold
greater final fluorescence intensity with 10% CL liposome versus POPC/POPE liposome alone ([11]; 1 μM NBD-labeled peptide): 2 fold
Molecule: NBD-NH-XCRLXRRXCR-C(O)NH2 [NBD-CMP3013m]

level of EC50 value (cell-penetrating ability) [10]: micromolar level of EC50 value
Molecule: X(dR)XKX(dR)XK [MPP1a, reference compound]
